Measurements: patent US11685741B2, “Fluorescent probes” (University of Massachusetts, priority 2017, dated 2023)
Several values for one entry are separate records, joined by “and”; a condition that tells them apart may be missing. Equal entries are not always repeated.

Key:
[1] = Metal ion sensing: UV-vis and fluorescence response to Fe3+ and other metal ions
Method: The spectroscopic properties of Rh-PK and its interactions with various metal ions were evaluated in acetonitrile (ACN)/Tris-HCl buffer (10 mM, pH 7.3, v/v, 3:1). […] The changes in UV-Vis spectra after the addition of various ions are shown in FIG. 2, which is an absorbance spectrum of 100 μM sensor with various metal ions (100 μM for Ni^+2, Cu^+, Cu^+2, Zn^+2, Pb, Fe^+2, Fe^+3, Cr^+3, Hg^+2, Mn^+2, Ag^+, and Co^+2; 200 μM for K^+, Na^+, Ca^2+ and Mg^2+) in the ACN/Tris buffer (10 mM, pH 7.3, v/v 3:1).
When Fe^3+ was added into the solution of Rh-PK, a significant enhancement of fluorescence (>12-fold with 1.0 equiv of Fe^3+) was observed.
The interferences from the other metal ions with Rh-PK in its response to Fe^3+ was examined. […] Each of the 12 metal ions was pre-incubated with Rh-PK before 1 equiv. of Fe^3+ was added, the fluorescence response was then measured.
The stock solution of sensor and metal ions were prepared at the concentration of 1 mM. M. P. Walkees, Mutat. Res., 2003, 533, 107; M. Waisberg, et al., Toxicology, 2003, 192, 95.
The UV-vis. and fluorescence spectra of RhHPA to various possible interfering metal ions and its selectivity for Fe^3+ were examined. See FIG. 6, which is a plot of absorbance dependent on the concentration of Fe^3+ in the range from 0 to 2 equivalents in ACN/Tris-HCl buffer (10 mM, pH 7.3, v/v 2:1); FIG. 7, which is a Job's plot between Fe^3+ and RhHPA, indicating the 1:1 binding mode for sensor and iron(III). […] Addition of Na^+, K^+, Ca^2+, Mg^2+, Cr^3+, […], Hg^2+, Cu^2+, Pb^2+, Zn^2+, Fe^2+, Co^2+, Ni^2+, and Ag^+ exerted little or no effect on the emission of RhHPA, while remarkable fluorescence enhancement was detected upon the addition of Fe^3+ by excitation of the rhodamine fluorophore at 535 nm.
Experiments of iron(III) with other metal ions were investigated by means of the fluorescence response of RhHPA toward Fe^3+ in the presence of various other metal ions such as Na^+, K^+, Ca^2+, Mg^2+, Cr^3+, Hg^2+, Cu^2+, Pb^2+, Zn^2+, Fe^2+, Co^2+, Ni^2+, Cd^2+, and Ag^+. […] for Fe^3+ had no changes with addition of other metal ions. Cu(II) and Zn(II) increased the fluorescence intensity slightly.

[2] = Metal ion sensing: UV-vis and fluorescence response to Fe2+ and other metal ions
Method: Selectivity and spectroscopic properties of the Rh6GD sensor were investigated to evaluate the performance of the fluorescence sensor in solution. The solution of metal ions were prepared from chloride salts of Ni^2+, Fe^3+, Cu^2+, Mn^2+, Hg^2+, Na^+, Ca^2+, Zn^2+, Ag^+, and nitrate salts of Mg^2+, K^+, Co^2+ (1 mM) in deionized water, except for Cu^2+ and Co^2+, which were dissolved in acetonitrile anhydrous. Solution of Cu^+ was freshly prepared by dissolving tetrakis(acetonitrile)copper(I) (Sigma-Aldrich) into double-distilled water. […]
(§1) The color change for Fe^2+ is readily detected visually. […]
The changes in fluorescence spectra of Rh6GD with the addition of different metal ions in H2O/THF (pH 7.32, v/v 4:1) are shown in FIG. 23. When Fe^2+ was added into the solution of Rh6GD, a large fluorescence enhancement at 549 nm was observed, induced by the complexation of Fe^2+.
Moreover, upon the addition of 1 equiv of Fe^2+ into solutions containing one of the other metal ions tested, the fluorescence was activated and the intensity increased to a level similar to that observed in the presence of Fe^2+ only (the black bars in FIG. 24).
Metal ion selectivity and spectroscopic properties of the sensor were investigated to evaluate the performance of the fluorescence sensor Rh101D. […]
as §1

[3] = Rh-PK + Fe^3+, ACN/Tris-HCl buffer pH 7.3 v/v 3:1

| Compound | Φ [1, 3] | ε of absorption peak at 555 nm [1, 3] [M⁻¹ cm⁻¹] | increase in fluorescence emission intensity ([1]; one equivalent Fe^3+, ACN/Tris-HCl buffer pH 7.3) | fluorescence enhancement response to Fe^2+ [2] [fold] | emission intensity enhancement ([2]; 1.0 equiv of Fe^2+, H2O/THF pH 7.32, 549 nm (Rh6GD), 743 nm (NIRh-Fret)) |
| --- | --- | --- | --- | --- | --- |
| CCN(CC)c1ccc2c(c1)Oc1cc(N(CC)CC)ccc1C21c2ccccc2C(=O)N1CC/N=C(\C)c1cccc(C(C)=O)n1 [Rh-PK, (E)-2-(2-((1-(6-acetylpyridin-2-yl)ethylidene)amino)ethyl)-3′,6′-bis(diethylamino)spiro[isoindoline-1,9′-xanthen]-3-one] | 0.173 | 3200 | ~12 fold and > 12 fold | – | – |
| CCNc1cc2c(cc1C)C1(c3cc(C)c(NCC)cc3O2)c2ccccc2C(=O)N1/N=C/C=C/c1ccc(N(C)C)cc1 [Rh6GD, 2-(((1E,2E)-3-(4-(dimethylamino)phenyl)allylidene)amino)-3′,6′-bis(ethylamino)-2′,7′-dimethylspiro[isoindoline-1,9′-xanthen]-3-one] | – | – | – | 3 | around 3 times |
